Laboratory results published in ChEMBL document CHEMBL4007451, “The 2014 Philip S. Portoghese Medicinal Chemistry Lectureship: The "Phenylalkylaminome" with a Focus on Selected Drugs of Abuse” (J Med Chem, 2017).

What was measured:
[1] = target: Sodium-dependent serotonin transporter (Rattus norvegicus, UniProt P31652); experiment: Activity at SERT in rat synaptosomes assessed as release of [3H]HT after 5 mins by liquid scintillation counting method; format: subcellular
Rattus norvegicus [2] = species on record: Rattus norvegicus; experiment: Induction of stimulus generalization in rat trained to discriminate PMMA assessed as appropriate responding level to training drug by two lever method; format: functional; details: for ED50: Rattus norvegicus
[3] = Activity at NET in rat synaptosomes assessed as release of [3H]NE after 30 mins by liquid scintillation counting method; format: subcellular
[4] = target: Sodium-dependent dopamine transporter (Rattus norvegicus, UniProt P23977); experiment: Activity at DAT in rat synaptosomes assessed as release of [3H]DA after 5 mins by liquid scintillation counting method; format: subcellular
Mus musculus = experiment: Anxiolytic-like activity in iv dosed ICR mouse assessed as increase in marbles left uncovered measured after 30 mins by marble burying assay; format: functional; details: 0.5 h
Rattus norvegicus [5] = species on record: Rattus norvegicus; experiment: Induction of stimulus generalization in Sprague-Dawley rat trained to discriminate S(+)AMPH assessed as appropriate responding level to training drug by two lever method; format: functional
Rattus norvegicus [6] = species on record: Rattus norvegicus; experiment: Induction of stimulus generalization in Sprague-Dawley rat trained to discriminate S(-)MCAT assessed as appropriate responding level to training drug by two lever method; format: functional
Rattus norvegicus [7] = species on record: Rattus norvegicus; experiment: Induction of stimulus generalization in rat trained to discriminate S(+)methamphetamine assessed as appropriate responding level to training drug by two lever method; format: functional
Rattus norvegicus [8] = species on record: Rattus norvegicus; experiment: Induction of stimulus generalization in rat trained to discriminate MDMA assessed as appropriate responding level to training drug by two lever method; format: functional
[9] = target: T1, 5-hydroxytryptamine receptor 2A (Rattus norvegicus, UniProt P14842); experiment: Displacement of [3H]DOB from 5HT2A in Sprague-Dawley rat cortex membranes measured after 15 mins by scintillation counting method; format: cell membranes
[10] = Displacement of [3H]DTG from sigma receptor (unknown origin); design: species or system Homo sapiens
[11] = target: 5-hydroxytryptamine receptor 2A (Homo sapiens, UniProt P28223); experiment: Displacement of [125I]DOI from recombinant human 5HT2A expressed in Syrian hamster AV12 cell membranes
Rattus norvegicus [12] = species on record: Rattus norvegicus; experiment: Induction of stimulus generalization in Sprague-Dawley rat trained to discriminate rac-cathinone assessed as appropriate responding level to training drug by two lever method; format: functional
Rattus norvegicus [13] = species on record: Rattus norvegicus; experiment: Induction of stimulus generalization in Sprague-Dawley rat trained to discriminate DOM assessed as appropriate responding level to training drug by two lever method; format: functional; details: for ED50: Rattus norvegicus, Sprague-Dawley
Rattus norvegicus [14] = species on record: Rattus norvegicus; experiment: Induction of stimulus generalization in Sprague-Dawley rat trained to discriminate alpha-ET assessed as appropriate responding level to training drug by two lever method; format: functional; details: for ED50: Rattus norvegicus, Sprague-Dawley
Rattus norvegicus [15] = species on record: Rattus norvegicus; experiment: Induction of stimulus generalization in Sprague-Dawley rat trained to discriminate PMMA assessed as appropriate responding level to training drug by two lever method; format: functional
Rattus norvegicus [16] = species on record: Rattus norvegicus; experiment: Induction of stimulus generalization in Sprague-Dawley rat trained to discriminate AMPH assessed as appropriate responding level to training drug by two lever method; format: functional; details: for ED50: Rattus norvegicus, Sprague-Dawley
Rattus norvegicus [17] = species on record: Rattus norvegicus; experiment: Induction of stimulus generalization in Sprague-Dawley rat trained to discriminate MDMA assessed as appropriate responding level to training drug by two lever method; format: functional; details: for ED50: Rattus norvegicus, Sprague-Dawley
Rattus norvegicus [18] = species on record: Rattus norvegicus; experiment: Induction of stimulus generalization in rat trained to discriminate DOM assessed as appropriate responding level to training drug by two lever method; format: functional
Rattus norvegicus [19] = species on record: Rattus norvegicus; experiment: Induction of stimulus generalization in rat trained to discriminate (+)amphetamine assessed as appropriate responding level to training drug by two lever method; format: functional
[20] = target: T2, 5-hydroxytryptamine receptor 1A (Rattus norvegicus, UniProt P19327); experiment: Displacement of [3H]-8-OH-DPAT from 5-HT1A receptor in Sprague-Dawley rat cortex membranes after 15 mins by liquid scintillation spectrometric method; format: cell membranes
T2 sequence (P19327 whole entry): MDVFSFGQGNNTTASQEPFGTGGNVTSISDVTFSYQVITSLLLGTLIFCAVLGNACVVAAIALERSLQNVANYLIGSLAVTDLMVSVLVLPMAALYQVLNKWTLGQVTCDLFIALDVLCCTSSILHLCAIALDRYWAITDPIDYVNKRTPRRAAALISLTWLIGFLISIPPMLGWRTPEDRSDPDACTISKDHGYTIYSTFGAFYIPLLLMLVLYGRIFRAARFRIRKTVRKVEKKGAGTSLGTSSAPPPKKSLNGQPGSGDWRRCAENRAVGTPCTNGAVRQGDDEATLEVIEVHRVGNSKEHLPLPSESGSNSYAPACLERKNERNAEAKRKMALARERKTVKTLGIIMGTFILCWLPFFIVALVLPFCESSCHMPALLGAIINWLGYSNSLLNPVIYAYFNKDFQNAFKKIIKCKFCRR

[21] = target: T1, 5-hydroxytryptamine receptor 2A; experiment: Displacement of [125I](+/-)DOI from rat 5HT2A after 1 hr by beta scintillation counting method
[22] = target: T1, 5-hydroxytryptamine receptor 2A; experiment: Displacement of [3H]ketanserin from 5HT2A in Sprague-Dawley rat frontal cortex membranes measured after 15 mins by scintillation counting method; design: species or system Membrane
Rattus norvegicus [23] = species on record: Rattus norvegicus; experiment: Induction of stimulus generalization in rat trained to discriminate (-)ephedrine assessed as appropriate responding level to training drug by two lever method; format: functional

Chain of Sodium-dependent dopamine transporter (P23977 whole entry): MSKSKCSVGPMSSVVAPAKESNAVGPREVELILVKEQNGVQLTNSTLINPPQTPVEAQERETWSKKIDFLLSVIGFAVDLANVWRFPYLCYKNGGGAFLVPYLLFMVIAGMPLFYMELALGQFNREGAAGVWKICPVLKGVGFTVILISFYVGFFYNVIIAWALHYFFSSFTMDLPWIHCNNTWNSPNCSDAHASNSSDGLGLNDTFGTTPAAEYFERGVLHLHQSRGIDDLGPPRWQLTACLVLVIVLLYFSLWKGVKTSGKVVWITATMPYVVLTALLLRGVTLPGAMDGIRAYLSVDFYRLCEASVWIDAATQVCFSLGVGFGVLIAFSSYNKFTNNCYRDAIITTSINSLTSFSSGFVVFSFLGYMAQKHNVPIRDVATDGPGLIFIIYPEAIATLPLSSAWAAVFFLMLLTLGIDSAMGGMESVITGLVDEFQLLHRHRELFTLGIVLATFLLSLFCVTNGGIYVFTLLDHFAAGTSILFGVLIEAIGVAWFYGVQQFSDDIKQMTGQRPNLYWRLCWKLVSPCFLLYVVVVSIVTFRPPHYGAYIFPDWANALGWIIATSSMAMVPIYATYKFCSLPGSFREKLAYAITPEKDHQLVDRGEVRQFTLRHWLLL
Chain of Sodium-dependent serotonin transporter (P31652 whole entry): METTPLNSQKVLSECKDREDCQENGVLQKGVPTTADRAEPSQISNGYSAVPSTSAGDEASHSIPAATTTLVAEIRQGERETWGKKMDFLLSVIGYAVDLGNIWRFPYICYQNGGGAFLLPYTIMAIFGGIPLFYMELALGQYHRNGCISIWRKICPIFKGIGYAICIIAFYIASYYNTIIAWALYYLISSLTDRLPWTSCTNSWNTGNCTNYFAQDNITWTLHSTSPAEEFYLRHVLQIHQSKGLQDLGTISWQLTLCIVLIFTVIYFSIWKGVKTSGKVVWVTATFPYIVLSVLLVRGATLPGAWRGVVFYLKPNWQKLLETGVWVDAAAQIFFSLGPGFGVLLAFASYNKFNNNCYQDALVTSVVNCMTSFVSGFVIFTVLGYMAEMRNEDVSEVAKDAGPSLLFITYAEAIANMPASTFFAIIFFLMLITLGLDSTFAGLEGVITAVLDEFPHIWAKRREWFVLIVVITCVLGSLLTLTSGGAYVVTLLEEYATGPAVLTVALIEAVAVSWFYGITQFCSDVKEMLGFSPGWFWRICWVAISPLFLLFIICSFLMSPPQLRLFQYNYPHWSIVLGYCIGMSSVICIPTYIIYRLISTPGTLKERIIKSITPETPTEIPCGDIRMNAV
T1 sequence (P14842 whole entry): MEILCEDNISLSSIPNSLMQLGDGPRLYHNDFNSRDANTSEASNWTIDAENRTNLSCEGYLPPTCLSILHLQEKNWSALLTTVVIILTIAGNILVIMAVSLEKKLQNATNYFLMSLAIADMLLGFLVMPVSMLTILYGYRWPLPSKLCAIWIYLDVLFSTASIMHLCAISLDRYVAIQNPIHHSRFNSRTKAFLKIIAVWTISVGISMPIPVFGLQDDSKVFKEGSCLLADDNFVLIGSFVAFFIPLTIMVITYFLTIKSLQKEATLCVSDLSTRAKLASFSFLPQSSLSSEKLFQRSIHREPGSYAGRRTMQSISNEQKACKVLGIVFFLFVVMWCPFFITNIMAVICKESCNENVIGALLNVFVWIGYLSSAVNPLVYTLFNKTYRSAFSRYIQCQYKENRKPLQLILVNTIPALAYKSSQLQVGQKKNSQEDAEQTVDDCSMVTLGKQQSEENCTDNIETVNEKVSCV
Chain of 5-hydroxytryptamine receptor 2A (Homo sapiens, UniProt P28223) (P28223 whole entry): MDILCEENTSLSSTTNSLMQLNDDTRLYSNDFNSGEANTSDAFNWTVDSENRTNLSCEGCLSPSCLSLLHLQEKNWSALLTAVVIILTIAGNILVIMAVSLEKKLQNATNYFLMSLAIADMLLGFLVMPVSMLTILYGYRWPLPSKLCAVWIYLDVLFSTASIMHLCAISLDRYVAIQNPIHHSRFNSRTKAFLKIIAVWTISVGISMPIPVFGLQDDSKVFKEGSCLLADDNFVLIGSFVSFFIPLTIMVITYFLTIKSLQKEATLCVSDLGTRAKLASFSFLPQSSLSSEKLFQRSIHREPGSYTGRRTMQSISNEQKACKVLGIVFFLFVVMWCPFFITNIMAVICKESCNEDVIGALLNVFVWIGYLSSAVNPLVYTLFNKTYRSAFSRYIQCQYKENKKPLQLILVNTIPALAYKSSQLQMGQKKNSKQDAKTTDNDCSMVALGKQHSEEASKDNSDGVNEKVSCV

CC(N)Cc1ccc2c(c1)OCO2 (racemic) [TENAMFETAMINE]
EC50 [1]: 160 nM | ED50 (Rattus norvegicus [2]): 0.5 mg/kg | EC50 [3]: 108 nM | EC50 [4]: 190 nM

O=C1CC2(CCCC2)CC(=O)N1CCCCN1CCN(c2ncccn2)CC1 [BUSPIRONE]
ED50 (Mus musculus): 2.36 mg/kg

CN[C@@H](C)Cc1ccccc1 [METHAMPHETAMINE]
ED50 (Rattus norvegicus [5]): 0.2 mg/kg | ED50 (Rattus norvegicus [6]): 0.17 mg/kg | ED50 (Rattus norvegicus [7]): 0.06 mg/kg

COc1ccc(C[C@@H](C)N)cc1
ED50 (Rattus norvegicus [2]): 0.4 mg/kg | Activity (Rattus norvegicus [8]): <20%

CN[C@H](C)Cc1ccc(OC)cc1
EC50 [1]: 134 nM | EC50 [3]: > 14000 nM | EC50 [4]: 1600 nM

COc1cc(CC(C)N)c(OC)cc1I (stereo not drawn)
Ki [9]: 0.7 nM

CN[C@@H](C)C(=O)c1ccccc1
ED50 (Rattus norvegicus [5]): 0.18 mg/kg | EC50 [1]: 1770 nM | ED50 (Rattus norvegicus [6]): 0.11 mg/kg | ED50 (Rattus norvegicus [7]): 0.21 mg/kg | EC50 [3]: 13.1 nM | EC50 [4]: 14.8 nM

C=CCN1CC[C@]2(C)c3cc(O)ccc3C[C@H]1[C@H]2C
Ki [10]: 150 nM

COc1cc(OC)c(OC)cc1CC(C)N (stereo not drawn)
Ki [11]: 57.9 nM | Ki [9]: 81 nM

C[C@H](N)[C@@H](O)c1ccccc1 [CATHINE]
ED50 (Rattus norvegicus [12]): 1.61 mg/kg

CC[C@@H](N)Cc1c[nH]c2ccccc12
Activity (Rattus norvegicus [13]): 33% | EC50 [1]: 68 nM | ED50 (Rattus norvegicus [14]): 1.6 mg/kg | EC50 [3]: > 10000 nM | EC50 [4]: 900 nM | ED50 (Rattus norvegicus [15]): 1.6 mg/kg | ED50 (Rattus norvegicus [16]): 7.8 mg/kg | ED50 (Rattus norvegicus [17]): 1.3 mg/kg

CCC(N)Cc1c[nH]c2ccccc12 (racemic) [ETRYPTAMINE]
ED50 (Rattus norvegicus [13]): 6.6 mg/kg | ED50 (Rattus norvegicus [18]): 6.6 mg/kg | ED50 (Rattus norvegicus [14]): 1.3 mg/kg | Activity (Rattus norvegicus [16]): 20 - 80% | ED50 (Rattus norvegicus [17]): 3.5 mg/kg

C[C@H](N)C(=O)c1ccccc1 [CATHINONE]
ED50 (Rattus norvegicus [5]): 0.34 mg/kg | ED50 (Rattus norvegicus [6]): 0.17 mg/kg | ED50 (Rattus norvegicus [19]): 0.32 mg/kg | ED50 (Rattus norvegicus [12]): 0.22 mg/kg

CCN(CC)[C@@H]1CCc2cccc(O)c2C1
Ki [20]: 9.65 nM

COc1cc([C@@H](OC)[C@H](C)N)c(OC)cc1Br
Ki [21]: 0.8 nM

CN[C@@H](C)Cc1ccc2c(c1)OCO2
EC50 [1]: 74 nM | ED50 (Rattus norvegicus [2]): 0.48 mg/kg | EC50 [3]: 136 nM | EC50 [4]: 142 nM | Ki [22]: 15800 nM

COc1ccc(OC)c(CC(C)N)c1 (stereo not drawn)
Ki [9]: 268 nM

CN[C@@H](C)Cc1ccc(OC)cc1
EC50 [1]: 41 nM | ED50 (Rattus norvegicus [2]): 0.3 mg/kg | EC50 [3]: 147 nM | EC50 [4]: 1000 nM

COc1ccc(C[C@H](C)N)cc1
Activity (Rattus norvegicus [2]): 20 - 80% | Activity (Rattus norvegicus [8]): 20 - 80%

COc1cc([C@H](OC)[C@@H](C)N)c(OC)cc1Br
Ki [21]: 17.4 nM

C[C@@H](N)Cc1ccc2c(c1)OCO2
EC50 [1]: 310 nM | ED50 (Rattus norvegicus [2]): 1.5 mg/kg | EC50 [3]: 290 nM | EC50 [4]: 900 nM

C[C@@H](N)C(=O)c1ccccc1
ED50 (Rattus norvegicus [19]): 4.41 mg/kg | ED50 (Rattus norvegicus [12]): 0.72 mg/kg

CC(Cc1ccccc1)NCCCCCc1ccccc1 (stereo not drawn)
Ki [10]: 6.3 nM

COc1ccc(C[C@@H](C)N)cc1OC
ED50 (Rattus norvegicus [2]): 3 mg/kg | ED50 (Rattus norvegicus [8]; Rattus norvegicus): 5.4 mg/kg

CN[C@@H](C)[C@H](O)c1ccccc1 [EPHEDRINE]
ED50 (Rattus norvegicus [7]): 13.1 mg/kg | ED50 (Rattus norvegicus [23]): 0.8 mg/kg

COc1cccc(C[C@H](C)N)c1 [(S)-M-METHOXYAMPHETAMINE]
Activity (Rattus norvegicus [2]): 20 - 80% | Activity (Rattus norvegicus [8]): <20%

CC[C@H](N)Cc1c[nH]c2ccccc12
ED50 (Rattus norvegicus [13]): 2.7 mg/kg | EC50 [1]: 20 nM | ED50 (Rattus norvegicus [14]): 1.3 mg/kg | EC50 [3]: > 10000 nM | EC50 [4]: 64 nM | ED50 (Rattus norvegicus [15]): 1.4 mg/kg | Activity (Rattus norvegicus [16]): 53% | ED50 (Rattus norvegicus [17]): 2 mg/kg

C[C@H](N)Cc1ccccc1 [DEXTROAMPHETAMINE]
ED50 (Rattus norvegicus [5]): 0.44 mg/kg | Ki [10]: 46000 nM | ED50 (Rattus norvegicus [6]): 0.23 mg/kg | Activity (Rattus norvegicus [14]): 20 - 80% | ED50 (Rattus norvegicus [7]): 0.28 mg/kg | EC50 [3]: 7 nM | ED50 (Rattus norvegicus [19]): 0.62 mg/kg | ED50 (Rattus norvegicus [12]): 0.2 mg/kg | ED50 (Rattus norvegicus [16]): 0.4 mg/kg | Activity (Rattus norvegicus [17]): 20 - 80%

CCNC(C)Cc1cccc(C(F)(F)F)c1 (stereo not drawn) [FENFLURAMINE]
EC50 [3]: 740 nM
